Experimental data as given in US11932626B2, “2-pyrimidone analogs as potent antiviral agents against Alphaviruses” (priority 2020, dated 2024).

What was measured:
CHIKV = CHIKV virus titer reduction (VTR) assay in NHDF cells; type: cell-based; conditions: Chikungunya virus; for log reduction at 10 µM: CHIKV titer reduction at 10 μM, normal human dermal fibroblasts (NHDF) cells; for EC90: effective concentration of 90% inhibition of virus in a VTR assay, NHDF cells
[1] = tested on: CHIKV linked NanoLuc luciferase reporter; assay: microbe, parasite or virus in culture; type: cell-based; conditions: Chikungunya virus, read-out: CHIKV EC50
VEEV = assay: microbe, parasite or virus in culture; type: cell-based; conditions: Venezuelan equine encephalitis virus, NHDF; for EC90: read-out: VEEV EC90
VEEV (TC-83) = assay: microbe, parasite or virus in culture; type: cell-based; conditions: Venezuelan equine encephalitis virus, read-out: VEEV EC50
in vitro = conditions: human
[2] = tested on: Chikungunya virus (CHIKV) strain SL15649; assay: CHIKV-infected mice, 5 days oral treatment: tissue viral loads
[3] = tested on: Chikungunya virus (CHIKV) strain SL15649; assay: CHIKV-infected mice, 10 days oral treatment: footpad swelling and viremia

SMILES: O=C(COc1cc[nH]c(=O)n1)NC12CC3CC(CC(C3)C1)C2 [Compound No. 7, N-(Adamantan-1-Yl)-2-((2-Oxo-1,2-Dihydropyrimidin-4-Yl)Oxy)Acetamide]
- log reduction at 10 µM (CHIKV): 3.68
- EC90 (CHIKV): 0.7 µM
- EC50 [1]: 3.2 µM
- EC90 (VEEV): 1.1 µM
- log reduction at 10 µM (VEEV; read-out: VEEV VTR): 1.79
- EC50 (VEEV (TC-83)): 38.8 µM
- CC50 (in vitro): > 40 µM
- Adverse toxicity ([2]; mice treated three times per day for 5 days per os): No adverse toxicity was observed
- Infectious viral loads in Ipsilateral ankle ([2]; mice, 40 mg/kg 3× daily p.o., 5 dpi, p<0.0001): reduced infectious viral loads
- Infectious viral loads in Contralateral ankle ([2]; mice, 40 mg/kg 3× daily p.o., 5 dpi, p=0.0009): reduced infectious viral loads
- Adverse toxicity ([3]; mice treated three times per day for 10 days per os): No adverse toxicity was observed
- Footpad swelling in the ipsilateral foot ([3]; mice, 40 mg/kg 3× daily p.o., days 3-8, compared to vehicle treated mice): reduced swelling in the ipsilateral foot at days 3, 4, 5, 6, 7, and 8
- Viral loads in serum ([3]; mice, 40 mg/kg 3× daily p.o., serum at 3 days post infection, p=0.0003): did not have detectable viral loads in serum samples
- Tissue distribution ([3]; mice, per os three times per day): distributed to a number of tissue types including joints and muscles

SMILES: COC(=O)c1c(SCC(=O)NC23CC4CC(CC(C4)C2)C3)nc(=O)[nH]c1C [compound 1]
- log reduction at 10 µM (CHIKV): 6.9
- EC90 (CHIKV): 0.089 µM
- EC50 [1]: 0.66 µM
- EC90 (VEEV): 1.9 µM
- EC50 (VEEV (TC-83)): 4.33 µM
- CC50 (in vitro): > 127 µM
